Here are results for three compounds from ChEMBL document CHEMBL1149037, “Vanicosides A and B, protein kinase C inhibitors from Polygonum pensylvanicum” (J Nat Prod, 1994).

SMILES strings stand for the structures. Values after ≈ are worked out from the molar mass of the structure shown. Active and inactive are the calls of the source. The rule behind the calls is not given here.

The nature of test [1]: Inhibition of PKC.
A further test has as its system MCF. Put plainly: Cytotoxicity against human MCF cells. It is filed as functional, cell-based.

Take `COc1cc(/C=C/C(=O)OC[C@H]2O[C@@H](O[C@]3(COC(=O)/C=C/c4ccc(OC(C)=O)cc4)O[C@H](COC(=O)/C=C/c4ccc(OC(C)=O)cc4)[C@@H](OC(C)=O)[C@@H]3OC(=O)/C=C/c3ccc(OC(C)=O)cc3)[C@H](OC(C)=O)[C@@H](OC(C)=O)[C@@H]2OC(C)=O)ccc1OC(C)=O`: the IC50 – broadly, the point on the concentration scale where inhibition reaches its midpoint – in test [1] was over 50 µg/mL.

For the compound `COc1cc(/C=C/C(=O)OC[C@H]2O[C@@H](O[C@]3(COC(=O)/C=C/c4ccc(O)cc4)O[C@H](COC(=O)/C=C/c4ccc(O)cc4)[C@@H](O)[C@@H]3OC(=O)/C=C/c3ccc(O)cc3)[C@H](OC(C)=O)[C@@H](O)[C@@H]2O)ccc1O` [VANICOSIDE A], the result in the test with MCF was Active. The IC50 in test [1] was determined as 44 µg/mL (≈ 44 µM).

Consider `COc1cc(/C=C/C(=O)OC[C@H]2O[C@H](O[C@]3(COC(=O)/C=C/c4ccc(O)cc4)O[C@H](COC(=O)/C=C/c4ccc(O)cc4)[C@@H](O)[C@@H]3OC(=O)/C=C/c3ccc(O)cc3)[C@H](O)[C@@H](O)[C@@H]2O)ccc1O` [VANICOSIDE B], for which the outcome with MCF was Active. The compound further registered an IC50 in test [1] of 31 µg/mL (≈ 32.4 µM).
